In paper PMC11200626, “In Vitro Biological Activities of Hesperidin-Related Compounds with Different Solubility” (Antioxidants, 2024):
In brackets after ≈: the same amount, converted by molar mass. Where two headings read alike, the source gives them in different places.

Legend:
[1] = β-carotene bleaching assay; conditions: for IC50: β-carotene/linoleic acid emulsion, 50 °C, 2 h
Experimental: Measurements of the inhibition activity of β-carotene oxidation were performed using the method described by Wanasundara et al. and Hidalgo et al. with slight modifications. Briefly, a mixture of β-carotene and linoleic acid was prepared by dissolving 0.2 mg of β-carotene in 1 mL of chloroform and mixing this solution with 200 mg of Tween 20 containing 20 mg of linoleic acid. After removing the chloroform from the mixture in a rotary evaporator at 50 °C, 100 mL of deionized water was added to prepare an emulsion. The diluted sample (100 μL) was mixed with 900 μL of the prepared emulsion and the absorbance was measured immediately at 470 nm. Then, after a reaction at 50 °C for 2 h, the absorbance was measured again at 470 nm. Antioxidant activity was evaluated as a percent of oxidation inhibition compared to the untreated group sample. As a positive control, BHT (butylated hydroxytoluene) was used in the experiment. β−Carotene bleaching inhibition activity%=A0−At−(B0−Bt)/A0−At×100 where A0 is the initial absorbance without a sample, At is the final absorbance without a sample, B0 is the initial absorbance with a sample, and Bt is the final absorbance with a sample.

[2] = Water solubility (in words); assay type: physicochemical
[3] = system: IL-6 in HaCaT cells; assay: Cellular IL-6 levels after UV irradiation (ELISA); assay type: cell-based, Human; conditions: UV 10 mJ/cm^2, 24 h, tested concentrations up to 25 μM
Experimental: (§1) Cellular levels of TNF-α and IL-6 were measured in HaCaT cells after the addition of various concentrations of HTL, HT, HD, and HDG under UV irradiation. The cell culture and sample treatment conditions for the TNF-α and IL-6 assay were the same as those used in the NO assay. The TNF-α and IL-6 contents in the media were measured, respectively, using commercial detection kits according to the manufacturer’s protocols. The absorbance was measured at 450 nm in the same microplate reader as above.

[4] = DPPH radical scavenging assay; conditions: for IC50: 0.2 mM DPPH in ethanol, 37 °C, 30 min, read-out: IC50 representing 50% of DPPH radical scavenging
Experimental: Measurements of DPPH radical scavenging activity were performed based on the method described by Ratha et al. and Blois, with slight modifications. Briefly, DPPH was dissolved in absolute ethanol to 0.2 mM, and 20 μL of the diluted sample was added to 180 μL of the DPPH solution. The reaction was performed at 37 °C for 30 min to stabilize the color, and the absorbance of the reaction solution was measured at 520 nm using a microplate reader (Epoch2, Bio Tek, Winooski, VT, USA). The DPPH radical scavenging activity was calculated using the following formula. Ascorbic acid was used as a positive control. DPPH radical scavenging activity%=A−B/A×100 where A is the absorbance of the reaction solution without a sample, and B is the absorbance of the reaction solution with a sample.

[5] = system: HaCaT cells; assay: MTT cell viability / cytotoxicity assay; conditions: 24 h, tested 12.5–200 μM
Experimental: The keratinocyte HaCaT cell line was obtained from AddexBio (SanDiego, CA, USA). The cells were maintained in DMEM supplemented with 10% FBS and 1% of penicillin/streptomycin under a humidified atmosphere condition of 5% CO2 at 37 °C. The cytotoxicity of HD and the related compounds was assessed by MTT assay. Cells were seeded in 96-well plates at a density of 2 × 10^4 cells/well and incubated for 24 h at 37 °C. Each sample of HTL, HT, HD, and HDG was dissolved in DMSO as a stock solution (0.1 M). […] After incubation for 24 h, the culture medium was removed and MTT solution (100 μL) was added to the well. The mixture was kept at 37 °C for 2 h, then DMSO was added to the reaction mixture and the absorbance at 540 nm was measured in a microplate reader (Epoch2, Bio Tek, Winooski, VT, USA). Cell viability was calculated as a percentage of difference in absorbance between control and test samples.

[6] = system: Candida albicans; assay: MIC, broth micro-dilution with resazurin; assay type: cell-based, Candida albicans (KCCM 50235); conditions: read-out: MIC Value
Experimental: (§2) Antimicrobial capacity was evaluated against some bacteria and yeast known to be major skin resident microorganisms. Staphylococcus aureus (KCCM 11335) was cultivated on TS agar, and Cutibacterium acnes (KCTC 25526) was cultivated on RCM agar in an anaerobic jar (Rec. Jar, Mitsubishi Gas Chemical Co., Tokyo, Japan) with anaerobic gas packs. Candida albicans (KCCM 50235) was cultivated on YM agar, and Malassezia furfur (KCTC 7545) was cultivated on MLN agar. All the microbes were cultivated at 35 °C.
(§3) For the determination of MIC, S. aureus was cultivated in TS broth, and C. acnes was cultivated in RCM medium in an anaerobic jar with gentle shaking. C. albicans was cultivated in an RPMI-1640 medium supplemented with L-glutamine, and M. furfur was cultivated in an RPMI medium supplemented with 2% oleic acid, 0.5% glycerol, 0.5% Tween 60, and 0.2% sodium bicarbonate. All the microbes were cultivated at 35 °C, and the inoculum size for MICs was 5 × 10^5 cells/mL for S. aureus, and 1.5 × 10^5 cells/mL for C. acnes, C. albicans, and M. furfur, respectively.
MIC values were determined by the broth micro-dilution method with some modifications. Briefly, the culture broth of each microorganism was diluted with the same medium. Two-fold serial dilutions of HTL, HT, HD, and HDG ranging from 4000 to 62.5 μg/mL (depending on the microorganism tested) were performed in 96 well plates. After incubation for sufficient growth, the resazurin solution (1 mg/mL, 10 µL) was added to each well and the plate was incubated for 2 h. The MIC value for a microorganism was determined as the lowest concentration of the tested compound that prevented the color change of resazurin (blue to pink).

[7] = n-octanol–water partition coefficient; assay type: physicochemical; conditions: 500 μM sample, 20 h at 20 °C, HPLC, mean ± SD (n = 3); for logP at 20 h: n-octanol/water, read-out: Log Po/w (n-octanol–water partition coefficient) (converted)
Experimental: The hydrophobic/hydrophilic properties were investigated by measuring octanol–water partition coefficients. Octanol–water partition coefficients of the four hesperidin-related compounds were determined by the method described in the previous study. Briefly, samples (500 μM) were mixed in deionized water with an equal volume of n-octanol, and then the mixture was kept for 20 h at 20 °C in the dark to reach partition equilibrium. The concentration of each sample was determined by HPLC, and the partition coefficient (log P) was calculated as the ratio of the concentration in the n-octanol phase to the concentration in the water phase. Partition coefficient LogP=LogCoctanol/[C]water where [C]n-octanol is the concentration of a compound in the n-octanol phase, and [C]water is the concentration of a compound in the water phase.

[8] = system: nitric oxide (NO) in HaCaT cells; assay: Cellular NO levels after UV irradiation; assay type: cell-based; conditions: UV 10 mJ/cm^2, 24 h; for NO levels (in words): tested up to 50 μM; for NO production (in words): at 25 μM
Experimental: Cellular NO levels were determined as an inflammatory intermediate in HaCaT cells. […] Then, cells with or without samples were irradiate with 10 mJ/cm^2 of UV rays at 302 nm using a UV irradiator (UV Crosslinker CL-1000M, UVP, Upland, CA, USA). […] After 24 h incubation, the NO content in the media was measured using an NO assay kit according to the manufacturer’s experimental protocol. The absorbance was measured at 540 nm in the same microplate reader as above.

[9] = system: TNF-α in HaCaT cells; assay: Cellular TNF-α levels after UV irradiation (ELISA); assay type: cell-based, Human; conditions: UV 10 mJ/cm^2, 24 h, tested concentrations up to 25 μM
Experimental: as §1

[10] = system: Cutibacterium acnes; assay: MIC, broth micro-dilution with resazurin; assay type: cell-based, Cutibacterium acnes (KCTC 25526); conditions: RCM medium, anaerobic, 35 °C, tested up to 4000 μg/mL
Experimental: as §2, §3
(§4) MIC values were determined by the broth micro-dilution method with some modifications. Briefly, the culture broth of each microorganism was diluted with the same medium. […] The MIC value for a microorganism was determined as the lowest concentration of the tested compound that prevented the color change of resazurin (blue to pink).

[11] = system: Staphylococcus aureus; assay: MIC, broth micro-dilution with resazurin; assay type: cell-based, Staphylococcus aureus (KCCM 11335); conditions: TS broth, 35 °C, tested up to 4000 μg/mL
Experimental: as §2, §3, §4

[12] = system: Malassezia furfur; assay: MIC, broth micro-dilution with resazurin; assay type: cell-based, Malassezia furfur (KCTC 7545); conditions: supplemented RPMI, 35 °C, tested up to 4000 μg/mL
Experimental: as §2, §3, §4

[13] = RPMI-1640, 35 °C, tested up to 4000 μg/mL

Structure (SMILES) | β-carotene bleaching inhibitory activity ([1]; at a concentration of 25 μM, positive control) [%] | water solubility (in words) [2] | effect on IL-6 production (in words) [3] | IC50 [4] [µM] | IC50 [1] [µM] | concentration showing cytotoxic effects / cell death [5] | cytotoxicity (in words) [5] | MIC [6, 13] [µg/mL] | logP at 20 h [7] | NO levels (in words) [8] | effect on TNF-α production (in words) [9] | MIC [10] [µg/mL] | MIC [11] [µg/mL] | NO production (in words) [8] | Log Po/w (n-octanol–water partition coefficient) [7] | MIC [12] [µg/mL] | MIC [6] [µg/mL] | DPPH radical scavenging activity ([4]; at a concentration of 50 μM, positive control) [%]
Cc1cc(C(C)(C)C)c(O)c(C(C)(C)C)c1 [BHT, butylated hydroxytoluene, reference compound] | 47.08 |  |  |  |  |  |  |  |  |  |  |  |  |  |  |  |  | 
COc1ccc(C2CC(=O)c3c(O)cc(O[C@@H]4O[C@H](CO[C@@H]5O[C@@H](C)[C@H](O)[C@@H](O)[C@H]5O)[C@@H](O[C@H]5O[C@H](CO)[C@@H](O)[C@H](O)[C@H]5O)[C@H](O)[C@H]4O)cc3O2)cc1O (stereo partly shown) [HDG, hesperidin glucoside] |  | highly soluble in water | Drastic effects were not observed | 1408 ± 3.73 | 267 ± 2.69 | > 200 µM | much less cytotoxicity than the other compounds | 2000 (≈ 2590 µM) | -3.45 | reduced NO levels at higher concentrations | Drastic effects were not observed |  |  |  |  |  |  | 
COc1ccc([C@@H]2CC(=O)c3c(O)cc(O)cc3O2)cc1O [HT, hesperetin] |  | hardly soluble in water |  | 893.1 ± 1.67 | 110 ± 3.74 | 100~200 μM |  | 500 (≈ 1650 µM) | 2.59 |  |  | 1000 (≈ 3310 µM) | 2000 (≈ 6620 µM) | markedly decreased |  |  |  | 
CCCCCCCCCCCC(=O)Oc1cc(O)c2c(c1)OC(c1ccc(OC)c(O)c1)CC2=O (stereo not shown) [HTL, hesperetin laurate] |  | extremely insoluble in water | highest reducing effect | 899.1 ± 2.52 | 105 ± 2.01 |  | induced cell death at relatively low concentrations | 250 (≈ 516 µM) | 7.28 ± 0.06 |  | highest reducing effect | 1000 (≈ 2060 µM) | 2000 (≈ 4130 µM) | markedly decreased | 7.08 ± 0.06 | 1000 (≈ 2060 µM) |  | 
COc1ccc(C2CC(=O)c3c(O)cc(O[C@@H]4O[C@H](CO[C@@H]5O[C@@H](C)[C@H](O)[C@@H](O)[C@H]5O)[C@@H](O)[C@H](O)[C@H]4O)cc3O2)cc1O (stereo partly shown) [HD, hesperetin 7-rutinoside] |  | poorly soluble in water | Drastic effects were not observed | 1409 ± 3.43 | 260.8 ± 2.55 | 100~200 μM |  |  | 2.13 ± 0.03 | reduced NO levels at higher concentrations | Drastic effects were not observed |  |  |  |  |  | 2000 (≈ 3280 µM) | 
O=C1O[C@H]([C@@H](O)CO)C(O)=C1O [Ascorbic acid, reference compound] |  |  |  |  |  |  |  |  |  |  |  |  |  |  |  |  |  | 48.74
